The source made the active and inactive calls. No cut-off for these calls is given here.
Assays:
NCI/ADR-RES [1] = assay: Downregulation of P-gp expression in human MCF7ADR cells at 0.1 to 10 uM incubated for 48 hrs by Western blot analysis; format: functional, cell-based; conditions: dose 0.1-10 µM
MCF7 = assay: Cytotoxicity against human MCF7 cells assessed as cell survival rate at 5 uM incubated for 48 hrs by CCK8 assay relative to control; format: functional
NCI/ADR-RES [2] = assay: Cytotoxicity against human MCF7ADR cells assessed as cell survival rate at 5 uM incubated for 48 hrs by CCK8 assay relative to control; format: functional
[3] = biological target: T1, ATP-dependent translocase ABCB1 (Homo sapiens, UniProt P08183); assay: Inhibition of P-gp in human MCF7ADR cells assessed as increase in Rh123 accumulation at 0.1 to 10 uM incubated for 4 hrs by flow cytometry; format: cell-based; conditions: dose 0.1-10 µM
[4] = Toxicity in nude BALB/c mouse xenografted with human MCF7ADR cells assessed as morphological change in kidney at 10 mg/kg, ip for 14 days administered every 2 days by H and E staining based analysis; format: organism-based; conditions: in vivo, 336 h, time 14 day
[5] = Toxicity in nude BALB/c mouse xenografted with human MCF7ADR cells assessed as body weight loss at 10 mg/kg, ip for 14 days administered every 2 days in presence of doxorubicin; format: organism-based; conditions: in vivo, 336 h, time 14 day
NCI/ADR-RES [6] = assay: Reversal activity against doxorubicin-mediated resistance in 3D spheroid model of human MCF7ADR cells assessed as reduction in tumor spheroid volume at 5 uM incubated for 9 days by inverted microscopy; format: functional, cell-based; conditions: time 9.0 day
NCI/ADR-RES [7] = assay: Reversal activity against vincristine-mediated resistance in human MCF7ADR cells assessed as reversal fold by measuring ratio of vincristine IC50 to vincristine IC50 in presence of test compound at 5 uM incubated for 48 hrs by CCK8 assay; format: functional
NCI/ADR-RES [8] = assay: Reversal activity against doxorubicin-mediated resistance in human MCF7ADR cells assessed as reversal fold by measuring ratio of doxorubicin IC50 to doxorubicin IC50 in presence of test compound at 1 uM incubated for 48 hrs by CCK8 assay; format: functional
NCI/ADR-RES [9] = assay: Antitumor activity against human MCF7ADR cells xenografted in nude BALB/c mouse assessed as tumor volume reduction at 10 mg/kg, ip for 14 days administered every 2 days; format: functional, organism-based; conditions: time 14.0 day
NCI/ADR-RES [10] = assay: Antitumor activity against human MCF7ADR cells xenografted in nude BALB/c mouse assessed as tumor weight reduction at 10 mg/kg, ip for 14 days administered every 2 days; format: functional, organism-based; conditions: time 14.0 day
NCI/ADR-RES [11] = assay: Reversal activity against paclitaxel-mediated resistance in human MCF7ADR cells assessed as reversal fold by measuring ratio of paclitaxel IC50 to paclitaxel IC50 in presence of test compound at 5 uM incubated for 48 hrs by CCK8 assay; format: functional
[12] = Toxicity in nude BALB/c mouse xenografted with human MCF7ADR cells assessed as morphological change in spleen at 10 mg/kg, ip for 14 days administered every 2 days by H and E staining based analysis; format: organism-based; conditions: in vivo, 336 h, time 14 day
[13] = Toxicity in nude BALB/c mouse xenografted with human MCF7ADR cells assessed as morphological change in lung at 10 mg/kg, ip for 14 days administered every 2 days by H and E staining based analysis; format: organism-based; conditions: in vivo, 336 h, time 14 day
[14] = biological target: T1, ATP-dependent translocase ABCB1; assay: Inhibition of P-gp in human MCF7ADR cells assessed as increase in Rh123 accumulation at 0.1 to 10 uM incubated for 4 hrs by fluorescence microscopy; format: cell-based; conditions: dose 0.1-10 µM
NCI/ADR-RES [15] = assay: Reversal activity against doxorubicin-mediated resistance in human MCF7ADR cells xenografted in nude BALB/c mouse at 10 mg/kg, ip for 14 days administered every 2 days; format: functional, organism-based; conditions: time 14.0 day
[16] = Toxicity in nude BALB/c mouse xenografted with human MCF7ADR cells assessed as morphological change in liver at 10 mg/kg, ip for 14 days administered every 2 days by H and E staining based analysis; format: organism-based; conditions: in vivo, 336 h, time 14 day
NCI/ADR-RES [17] = assay: Antitumor activity against human MCF7ADR cells xenografted in nude BALB/c mouse assessed as tumor size reduction at 10 mg/kg, ip for 14 days administered every 2 days; format: functional, organism-based; conditions: time 14.0 day
[18] = Toxicity in nude BALB/c mouse xenografted with human MCF7ADR cells assessed as body weight loss at 10 mg/kg, ip for 14 days administered every 2 days; format: organism-based; conditions: in vivo, 336 h, time 14 day
NCI/ADR-RES [19] = assay: Reversal activity against doxorubicin-mediated resistance in human MCF7ADR cells assessed as reversal fold by measuring ratio of doxorubicin IC50 to doxorubicin IC50 in presence of test compound at 5 uM incubated for 48 hrs by CCK8 assay; format: functional
NCI/ADR-RES [20] = assay: Reversal activity against doxorubicin-mediated resistance in human MCF7ADR cells assessed as reversal fold by measuring ratio of doxorubicin IC50 to doxorubicin IC50 in presence of test compound at 0.1 uM incubated for 48 hrs by CCK8 assay; format: functional
NCI/ADR-RES [21] = assay: Reversal activity against doxorubicin-mediated resistance in human MCF7ADR cells assessed as reversal fold by measuring ratio of doxorubicin IC50 to doxorubicin IC50 in presence of test compound at 0.5 uM incubated for 48 hrs by CCK8 assay; format: functional
NCI/ADR-RES [22] = assay: Reversal activity against daunorubicin-mediated resistance in human MCF7ADR cells assessed as reversal fold by measuring ratio of daunorubicin IC50 to daunorubicin IC50 in presence of test compound at 5 uM incubated for 48 hrs by CCK8 assay; format: functional
[23] = Toxicity in nude BALB/c mouse xenografted with human MCF7ADR cells assessed as morphological change in heart at 10 mg/kg, ip for 14 days administered every 2 days by H and E staining based analysis; format: organism-based; conditions: in vivo, 336 h, time 14 day
[24] = Toxicity in nude BALB/c mouse xenografted with human MCF7ADR cells assessed as increase in nuclear density in kidney at 3 mg/kg, ip for 14 days administered every 2 days by H and E staining based analysis; format: organism-based; conditions: in vivo, 336 h, time 14 day
[25] = Toxicity in nude BALB/c mouse xenografted with human MCF7ADR cells assessed as hyperplasia in spleen at 3 mg/kg, ip for 14 days administered every 2 days by H and E staining based analysis; format: organism-based; conditions: in vivo, 336 h, time 14 day
[26] = Toxicity in nude BALB/c mouse xenografted with human MCF7ADR cells assessed as body weight loss at 3 mg/kg, ip for 14 days administered every 2 days; format: organism-based; conditions: in vivo, 336 h, time 14 day
[27] = Toxicity in nude BALB/c mouse xenografted with human MCF7ADR cells assessed as pathological change in spleen at 3 mg/kg, ip for 14 days administered every 2 days by H and E staining based analysis; format: organism-based; conditions: in vivo, 336 h, time 14 day
[28] = Toxicity in nude BALB/c mouse xenografted with human MCF7ADR cells assessed as reduction in liver volume at 3 mg/kg, ip for 14 days administered every 2 days by H and E staining based analysis; format: organism-based; conditions: in vivo, 336 h, time 14 day
[29] = Toxicity in nude BALB/c mouse xenografted with human MCF7ADR cells assessed as increase in nuclear density in liver at 3 mg/kg, ip for 14 days administered every 2 days by H and E staining based analysis; format: organism-based; conditions: in vivo, 336 h, time 14 day
[30] = Toxicity in nude BALB/c mouse xenografted with human MCF7ADR cells assessed as reduction in spleen volume at 3 mg/kg, ip for 14 days administered every 2 days by H and E staining based analysis; format: organism-based; conditions: in vivo, 336 h, time 14 day

T1 sequence (P08183 whole entry): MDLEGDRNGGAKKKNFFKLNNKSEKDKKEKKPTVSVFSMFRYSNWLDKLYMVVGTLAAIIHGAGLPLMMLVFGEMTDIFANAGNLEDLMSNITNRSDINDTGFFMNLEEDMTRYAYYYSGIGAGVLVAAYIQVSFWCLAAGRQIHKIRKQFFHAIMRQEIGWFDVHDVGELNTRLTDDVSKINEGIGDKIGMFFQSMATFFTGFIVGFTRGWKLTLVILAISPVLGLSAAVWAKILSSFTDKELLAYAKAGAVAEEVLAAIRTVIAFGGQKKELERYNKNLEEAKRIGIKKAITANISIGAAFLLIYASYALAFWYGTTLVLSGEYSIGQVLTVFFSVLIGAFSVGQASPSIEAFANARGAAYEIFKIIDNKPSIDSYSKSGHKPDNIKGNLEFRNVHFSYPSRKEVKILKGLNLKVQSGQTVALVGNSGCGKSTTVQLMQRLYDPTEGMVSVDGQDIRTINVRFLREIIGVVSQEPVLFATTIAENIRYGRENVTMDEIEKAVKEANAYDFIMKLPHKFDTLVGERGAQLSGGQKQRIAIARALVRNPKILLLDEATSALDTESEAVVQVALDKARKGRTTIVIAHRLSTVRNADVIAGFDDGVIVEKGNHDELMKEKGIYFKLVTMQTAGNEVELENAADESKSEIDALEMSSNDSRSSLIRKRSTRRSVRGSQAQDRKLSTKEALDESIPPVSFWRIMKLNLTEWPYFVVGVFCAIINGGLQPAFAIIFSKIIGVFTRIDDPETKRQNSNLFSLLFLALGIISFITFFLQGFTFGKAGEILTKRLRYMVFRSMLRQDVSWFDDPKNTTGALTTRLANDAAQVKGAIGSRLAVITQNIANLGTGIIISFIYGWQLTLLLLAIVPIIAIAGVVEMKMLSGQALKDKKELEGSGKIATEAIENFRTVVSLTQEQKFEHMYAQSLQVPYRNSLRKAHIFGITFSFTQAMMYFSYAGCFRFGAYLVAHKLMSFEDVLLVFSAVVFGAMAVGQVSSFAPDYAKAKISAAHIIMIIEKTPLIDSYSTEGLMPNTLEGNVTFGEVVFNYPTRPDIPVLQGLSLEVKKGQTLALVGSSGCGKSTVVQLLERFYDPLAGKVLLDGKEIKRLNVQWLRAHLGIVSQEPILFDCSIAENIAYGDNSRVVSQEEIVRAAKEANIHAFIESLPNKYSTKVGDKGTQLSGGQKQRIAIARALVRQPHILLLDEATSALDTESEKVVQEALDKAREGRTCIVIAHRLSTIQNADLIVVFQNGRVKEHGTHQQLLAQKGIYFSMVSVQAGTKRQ

COc1ccc(C(=O)Nc2ccc(-c3ccc(C(=O)N4CCc5cc(OC)c(OC)cc5C4)o3)cc2)cc1
Activity (NCI/ADR-RES [1]): inactive | Activity (MCF7): 80.4% | Activity (NCI/ADR-RES [2]): 80.1% | inhibition (INH) [3]: Dose-Dependent Effect | Activity [4]: Non-Toxic | Activity [5]: Toxic | Activity (NCI/ADR-RES [6]): Active | fold change (FC) (NCI/ADR-RES [7]): 18.9 | fold change (FC) (NCI/ADR-RES [8]): 110.5 | Activity (NCI/ADR-RES [9]): inactive | Activity (NCI/ADR-RES [10]): inactive | fold change (FC) (NCI/ADR-RES [11]): 158.6 | Activity [12]: Non-Toxic | Activity [13]: Non-Toxic | inhibition (INH) [14]: Dose-Dependent Effect | Activity (NCI/ADR-RES [15]): Active | Activity [16]: Non-Toxic | Activity (NCI/ADR-RES [17]): inactive | Activity [18]: Non-Toxic | fold change (FC) (NCI/ADR-RES [19]): 565 | fold change (FC) (NCI/ADR-RES [20]): 3.3 | fold change (FC) (NCI/ADR-RES [21]): 8.8 | fold change (FC) (NCI/ADR-RES [22]): 143.4 | Activity [23]: Non-Toxic

COc1cccc2c1C(=O)c1c(O)c3c(c(O)c1C2=O)C[C@@](O)(C(=O)CO)C[C@@H]3O[C@H]1C[C@H](N)[C@H](O)[C@H](C)O1 [DOXORUBICIN]
Activity [24]: Toxic | Activity [25]: Toxic | Activity [26]: Toxic | Activity [27]: Toxic | Activity [28]: Toxic | Activity [29]: Toxic | Activity [30]: Toxic
